Literature values, collected in patent US6953823B2, “Elastomeric insulating composition for a solid propellant rocket motor” (Chung Shan Institute of Science and Technology, priority 2003, dated 2005).

Tested on: rats

In the case of `[OH-].[OH-].[OH-].[OH-].[OH-].[OH-].[Sn+4].[Zn+2]` [Zinc Hydroxystannate, zinc hydroxystannate], the “Oral Toxicity (LD50, rats)” value is given as >5 gr/kg.
